Reference: US11261175B2 (priority 2017, dated 2022)

Experiments:
Assay type in all cases: cell-based
[1] = test system: JFH5a-Rluc-ad34 virus (HCV GT-2a); experiment: Anti-HCV activity using HCVcc (JFH5a-Rluc-ad34 virus) in Huh 7.5.1 cells, Renilla luciferase readout; conditions: Hepatitis C virus, GT2A, Huh-7.5.1, 72 h, read-out: HCV wt. GT-2a
Description: <Experimental Example 1> Measurement of Anti-HCV Activity of Compounds of Examples Using HCVcc
Step 1: Cell Line and Cell Culture
Huh 7.5.1 cells were grown in Dulbecco's Modified Eagle's medium (DMEM; Gibco) supplemented with antibiotics (100 U/mL penicillin, 10 μg/mL streptomycin) and 10% heat-inactivated fetal bovine serum (ΔFBS; PEAK) in a CO2 incubator at 37° C. with […].
Huh7.5.1 cells were transfected with in vitro transcription RNA of JFH5a-Rluc-ad34, a derivative of JFH1 with adaptive mutations in E2 and p7 regions, by electroporation. JFH5a-Rluc-ad34 virus contains Renilla luciferase (Rluc), which is convenient for virus proliferation assay. The cell culture medium containing HCV was collected 3-5 days after the electroporation and then filtered through a […] pore size filter.
Step 3: Antiviral Activity Test Using Infectious HCV Particles
Huh 7.5.1 cells were inoculated with JFH5a-Rluc-ad34 virus and incubated for 4 hours. Four hours after the virus inoculation, the Huh7.5.1 cells infected with HCV were cultured in the medium containing the compound of examples serially diluted. Three days later, the cells were harvested and the intracellular luciferase activity was measured using Renilla luciferase assay system (Promega). Finally, the luciferase activity was normalized with those obtained from the negative control cells (mock-treated cells).

[2] = test system: HCV genotype 1b replicon with NS5A L31V+Y93H (double mutant); experiment: Transiently transfected assay of genotype 1b resistance mutant RNA L31V+Y93H (double mutant); conditions: Hepatitis C virus, Huh-7.5.1, 72 h, read-out: HCV Mutation L31V + Y93H
Text: (§1) <Experimental Example 3> Transiently Transfected Assay of Genotype 1b Resistance Mutant RNAs
(§2) Replicon genomes substituted with Y93H, L31V and L31V+Y93H (double mutant), the resistance mutants to Daclatasvir with mutations at the NS5A protein domain 1.
(§3) These HCV resistance mutant genomes were linearized with scal restriction enzyme, and then the mutated HCV RNA was synthesized through in vitro transcription. Huh 7.5.1 cells were individually electroporated with HCV RNA with resistant mutations and plated in a 12 well plate. After 4 hours, Huh7.5.1 cells were seeded in DMEM containing the compounds of examples serially diluted for 3 days. Three days later, the cells were harvested and the intracellular luciferase activity was measured. The luciferase activity was normalized with those obtained from the negative control cells (mock-treated cells).

[3] = test system: HCV genotype 1b replicon with NS5A Y93H mutation; experiment: Transiently transfected assay of genotype 1b resistance mutant RNA Y93H; conditions: Hepatitis C virus, Huh-7.5.1, 72 h, read-out: HCV Mutation Y93H
Text: as §1, §2, §3

[4] = test system: HCV replicon S52-Feo (genotype 3a); experiment: Anti-HCV activity using HCV replicon S52-Feo (genotype 3a) in Huh 7.5.1 cells, luciferase readout; conditions: Hepatitis C virus, 72 h; Huh 7.5.1 cells with S52-Feo replicon, 3 days, firefly luciferase; read-out: HCV wt. GT-3a
[5] = test system: HCV genotype 1b replicon with NS5A L31V mutation; experiment: Transiently transfected assay of genotype 1b resistance mutant RNA L31V; conditions: Hepatitis C virus, Huh-7.5.1, 72 h, read-out: HCV Mutation L31V
Text: as §1, §2, §3

[6] = test system: HCV replicon NK5.1-Gluc (genotype 1b); experiment: Anti-HCV activity using HCV replicon NK5.1-Gluc (genotype 1b) in Huh 7.5.1 cells, luciferase readout; conditions: Hepatitis C virus, 72 h; Huh 7.5.1 cells with NK5.1-Gluc replicon, 3 days, Gaussia luciferase; read-out: HCV wt. GT-1b

CCCCC1(CCCC)c2cc(NC(=O)[C@@H]3CCCN3C(=O)[C@H](NC(=O)OC)c3ccccc3)ccc2-c2ccc(NC(=O)[C@@H]3CC(=O)CN3C(=O)[C@H](NC(=O)OC)c3ccccc3)cc21 [Example 10, methyl ((R)-2-((S)-2-((9,9-dibutyl-7-((S)-1-((R)-2-((methoxycarbonyl)amino)-2-phenylacetyl)pyrrolidine-2-carboxyamido)-9H-fluorene-2-yl)carbamoyl)-4-oxopyrrolidine-1-yl)-2-oxo-1-phenylethyl)carbamate]
EC50 [1]: 0.1 to 1 nM
EC50 [2]: 1 to 100 nM
EC50 [3]: 0.1 to 1 nM
EC50 [4]: 0.01 to 0.1 nM
EC50 [5]: 0.001 to 0.01 nM
EC50 [6]: 0.001 to 0.01 nM

CCCCC1(CCCC)c2cc(NC(=O)[C@@H]3CCCN3C(=O)[C@H](NC(=O)OC)c3ccccc3)ccc2-c2ccc(NC(=O)[C@@H]3C[C@H](COC)CN3C(=O)[C@H](NC(=O)OC)c3ccccc3)cc21 [Example 37, methyl ((R)-2-((2S,4S)-2-((9,9-dibutyl-7-((S)-1-((R)-2-((methoxycarbonyl)amino)-2-phenylacetyl)pyrrolidine-2-carboxyamido)-9H-fluorene-2-yl)carbamoyl)-4-(methoxymethyl)pyrrolidine-1-yl)-2-oxo-1-phenylethyl)carbamate]
EC50 [1]: 0.1 to 1 nM
EC50 [2]: 1 to 100 nM
EC50 [3]: 0.01 to 0.1 nM
EC50 [4]: 0.001 to 0.01 nM
EC50 [5]: 0.001 to 0.01 nM
EC50 [6]: 0.001 to 0.01 nM

CCCCC1(CCCC)c2cc(NC(=O)[C@@H]3CCCN3C(=O)[C@H](NC(=O)OC)c3ccccc3)ccc2-c2ccc(NC(=O)[C@@H]3CC4(CN3C(=O)[C@H](NC(=O)OC)c3ccccc3)OCCO4)cc21 [Example 16, methyl ((R)-2-((S)-8-((9,9-dibutyl-7-((S)-1-((R)-2-((methoxycarbonyl)amino)-2-phenylacetyl)pyrrolidine-2-carboxyamido)-9H-fluorene-2-yl)carbamoyl)-1,4-dioxa-7-azaspiro[4.4]nonane-7-yl)-2-oxo-1-phenylethyl)carbamate]
EC50 [1]: 1 to 100 nM
EC50 [2]: 1 to 100 nM
EC50 [3]: 0.01 to 0.1 nM
EC50 [4]: 0.01 to 0.1 nM
EC50 [5]: 0.001 to 0.01 nM
EC50 [6]: 0.001 to 0.01 nM

CCCCC1(CCCC)c2cc(NC(=O)[C@@H]3CCCN3C(=O)[C@H](NC(=O)OC)c3ccccc3)ccc2-c2ccc(-c3cnc([C@@H]4C[C@H](COC)CN4C(=O)[C@@H](NC(=O)OC)C(C)C)[nH]3)cc21 [Example 41, methyl ((S)-1-((2S,4S)-2-(5-(9,9-dibutyl-7-((S)-1-((R)-2-((methoxycarbonyl)amino)-2-phenylacetyl)pyrrolidine-2-carboxyamido)-9H-fluorene-2-yl)-1H-imidazole-2-yl)-4-(methoxymethyl)pyrrolidine-1-yl)-3-methyl-1-oxobutane-2-yl)carbamate]
EC50 [1]: 0.01 to 0.1 nM
EC50 [2]: 1 to 100 nM
EC50 [3]: 0.01 to 0.1 nM
EC50 [4]: 0.1 to 1 nM
EC50 [5]: 0.001 to 0.01 nM
EC50 [6]: 0.01 to 0.1 nM

CCCCC1(CCCC)c2cc(NC(=O)[C@@H]3C[C@@H](O)CN3C(=O)[C@H](NC(=O)OC)c3ccccc3)ccc2-c2ccc(NC(=O)[C@@H]3C[C@@H](O)CN3C(=O)[C@H](NC(=O)OC)c3ccccc3)cc21 [Example 29, dimethyl ((1R,1′R)-((3R,3′R,5S,5′S)-(((9,9-dibutyl-9H-fluorene-2,7-diyl)bis(azanediyl))bis(carbonyl))bis(3-hydroxypyrrolidine-5,1-diyl))bis(2-oxo-1-phenylethane-2,1-diyl))dicarbamate]
EC50 [1]: 0.1 to 1 nM
EC50 [2]: 0.01 to 0.1 nM
EC50 [3]: 0.01 to 0.1 nM
EC50 [4]: 0.01 to 0.1 nM
EC50 [5]: 0.01 to 0.1 nM
EC50 [6]: 0.001 to 0.01 nM

CCCCC1(CCCC)c2cc(NC(=O)[C@@H]3CC4(CC4)CN3C(=O)[C@H](NC(=O)OC)c3ccccc3)ccc2-c2ccc(-c3cnc([C@@H]4CCCN4C(=O)[C@@H](NC(=O)OC)C(C)C)[nH]3)cc21 [Example 26, methyl ((S)-1-((S)-2-(5-(9,9-dibutyl-7-((S)-5-((R)-2-((methoxycarbonyl)amino)-2-phenylacetyl)-5-azaspiro[2.4]heptane-6-carboxyamido)-9H-fluorene-2-yl)-1H-imidazole-2-yl)pyrrolidine-1-yl)-3-methyl-1-oxobutane-2-yl)carbamate]
EC50 [1]: 0.01 to 0.1 nM
EC50 [2]: > 100 nM
EC50 [3]: 0.1 to 1 nM
EC50 [4]: 0.01 to 0.1 nM
EC50 [5]: 0.01 to 0.1 nM
EC50 [6]: 0.001 to 0.01 nM

CCCCCC1(CCCCC)c2cc(NC(=O)[C@@H]3CCCN3C(=O)[C@H](NC(=O)OC)c3ccccc3)ccc2-c2ccc(NC(=O)[C@@H]3CCCN3C(=O)[C@H](NC(=O)OC)c3ccccc3)cc21 [Example 11, dimethyl ((1R,1′R)-((2S,2′S)-(((9,9-dipentyl-9H-fluorene-2,7-diyl)bis(azanediyl))bis(carbonyl))bis(pyrrolidine-2,1-diyl))bis(2-oxo-1-phenylethane-2,1-diyl))dicarbamate]
EC50 [1]: 1 to 100 nM
EC50 [2]: 1 to 100 nM
EC50 [3]: 1 to 100 nM
EC50 [4]: 0.01 to 0.1 nM
EC50 [5]: 0.001 to 0.01 nM
EC50 [6]: 0.001 to 0.01 nM

CCCCC1(CCCC)c2cc(NC(=O)[C@@H]3CC4(CC4)CN3C(=O)[C@H](NC(=O)OC)c3ccccc3)ccc2-c2ccc(NC(=O)[C@@H]3C[C@H]4CCC[C@H]4N3C(=O)[C@H](NC(=O)OC)c3ccccc3)cc21 [Example 25, methyl ((R)-2-((S)-6-((9,9-dibutyl-7-((2S,3aR,6aR)-1-((R)-2-((methoxycarbonyl)amino)-2-phenylacetyl)octahydrocyclopenta[b]pyrrole-2-carboxyamido)-9H-fluorene-2-yl)carbamoyl)-5-azaspiro[2.4]heptane-5-yl)-2-oxo-1-phenylethyl)carbamate]
EC50 [1]: 1 to 100 nM
EC50 [2]: 1 to 100 nM
EC50 [3]: 1 to 100 nM
EC50 [4]: 0.01 to 0.1 nM
EC50 [5]: 0.001 to 0.01 nM
EC50 [6]: 0.001 to 0.01 nM

CCCC1(CCC)c2cc(NC(=O)[C@@H]3CCCN3C(=O)[C@H](NC(=O)OC)c3ccccc3)ccc2-c2ccc(-c3cnc([C@@H]4CCCN4C(=O)[C@@H](NC(=O)OC)C(C)C)[nH]3)cc21 [Example 3, methyl ((S)-1-((S)-2-(5-(9,9-dipropyl-7-((S)-1-((R)-2-((methoxycarbonyl)amino)-2-phenylacetyl)pyrrolidine-2-carboxyamido)-9H-fluorene-2-yl)-1H-imidazole-2-yl)pyrrolidine-1-yl)-3-methyl-1-oxobutane-2-yl)carbamate]
EC50 [1]: 0.01 to 0.1 nM
EC50 [2]: 1 to 100 nM
EC50 [3]: 0.01 to 0.1 nM
EC50 [4]: 0.01 to 0.1 nM
EC50 [5]: 0.01 to 0.1 nM
EC50 [6]: 0.01 to 0.1 nM

CCCCC1(CCCC)c2cc(NC(=O)[C@@H]3CCCN3C(=O)[C@H](NC(=O)OC)c3ccccc3)ccc2-c2ccc(NC(=O)[C@@H]3CCCN3C(=O)[C@H](NC(=O)OC)c3ccccc3)cc21 [Example 2, dimethyl ((1R,1′R)-((2S,2′S)-(((9,9-dibutyl-9H-fluorene-2,7-diyl)bis(azanediyl))bis(carbonyl))bis(pyrrolidine-2,1-diyl))bis(2-oxo-1-phenylethane-2,1-diyl))dicarbamate]
EC50 [1]: 1 to 100 nM
EC50 [2]: 1 to 100 nM
EC50 [3]: 0.1 to 1 nM
EC50 [4]: 0.01 to 0.1 nM
EC50 [5]: 0.001 to 0.01 nM
EC50 [6]: 0.001 to 0.01 nM

CCC1(CC)c2cc(NC(=O)[C@@H]3CCCN3C(=O)[C@H](NC(=O)OC)c3ccccc3)ccc2-c2ccc(-c3cnc([C@@H]4CCCN4C(=O)[C@@H](NC(=O)OC)C(C)C)[nH]3)cc21 [Example 8, methyl ((S)-1-((S)-2-(5-(9,9-diethyl-7-((S)-1-((R)-2-((methoxycarbonyl)amino)-2-phenylacetyl)pyrrolidine-2-carboxyamido)-9H-fluorene-2-yl)-1H-imidazole-2-yl)pyrrolidine-1-yl)-3-methyl-1-oxobutane-2-yl)carbamate]
EC50 [1]: 0.001 to 0.01 nM
EC50 [2]: 1 to 100 nM
EC50 [3]: 0.01 to 0.1 nM
EC50 [4]: 0.01 to 0.1 nM
EC50 [5]: 0.01 to 0.1 nM
EC50 [6]: 0.001 to 0.01 nM
